Assay results taken from article PMC7091366 (Archives of Pharmacal Research, 2014).
In brackets after ≈: the same amount, converted by molar mass. Entries after “also recorded” stand apart in the source; their conditions may differ.

Assays:
BHK-21 cells = assay: Cell viability; assay type: cell-based, baby hamster; details: 72 h, MTT
[1] = system: GAS-driven promoter (pGAS-Luc) in BHK-21 cells; assay: GAS-driven promoter dual-luciferase reporter assay; assay type: cell-based, baby hamster; details: 10 μg/ml, 4 h, versus untreated cells
[2] = system: Japanese encephalitis virus (JEV); assay: Quantitative assay of JEV yields by real-time RT-PCR; assay type: cell-based; details: for Ct (real-time RT-PCR of JEV RNA in supernatant) / ΔCt (Ct experimental − Ct control) / Reduction in virus RNA loads: 10 μg/ml; for Ct (real-time RT-PCR of JEV RNA in supernatant) / ΔCt (Ct experimental − Ct control): JEV MOI 1, BHK-21 cells, 72 h; for Reduction in virus RNA loads: supernatant of infected BHK-21 cells, three days post infection; for inhibition at 10 µg/mL: Japanese encephalitis virus, BHK-21, read-out: Inhibition of JEV yields
Cell viability = assay type: cell-based, baby hamster; details: hamster, BHK-21 cells, CC50, BHK-21 cells, MTT
[3] = system: Japanese encephalitis virus (JEV) strain T1P1; assay: JEV plaque reduction assay in BHK-21 cells; assay type: cell-based; details: JEV 100 pfu, BHK-21 monolayer, plaques after 3 days

Compound | CC50 (BHK-21 cells) [µg/mL] | Activity of GAS-driven promoter (relative firefly luciferase) ([1]; listed as aloe emodin) | Activity of GAS-driven promoter (relative firefly luciferase) ([1]; listed as aloe-emodin) | Ct (real-time RT-PCR of JEV RNA in supernatant) [2] | ΔCt (Ct experimental − Ct control) [2] | Reduction in virus RNA loads [2] | inhibition at 10 µg/mL [2] [%] | CC50 at 72 h (Cell viability) [µg/mL] | IC50 (JEV plaque reduction) [3] [µg/mL] | Activity of GAS-driven promoter (relative firefly luciferase) [1]
Cc1cc(O)c2c(c1)C(=O)c1cc(O)cc(O)c1C2=O [Emodin] | 5.49 ± 1.82 (≈ 20.3 µM) |  |  |  |  |  |  |  |  | 
O=C1c2cccc(O)c2C(=O)c2c(O)cc(CO)cc21 [Aloe-emodin] |  | significantly activated | significantly increased | 32.25 | 6.72 | more than 1 log | 90 | 20.2 ± 1.01 (≈ 74.7 µM) | 17.39 ± 0.58 (≈ 64.4 µM) | 
Cc1cc(O)c2c(c1)C(=O)c1cccc(O)c1C2=O [Chrysophanol] |  |  |  | 29.26 | 3.73 | more than 1 log | 90 | 18.2 ± 5.53 (≈ 71.5 µM) | 15.82 ± 2.62 (≈ 62.2 µM) | significantly activated; also recorded: significantly increased
COc1cc(O)c2c(c1)C(=O)c1cc(C)cc(O)c1C2=O [Physcion] |  |  |  |  |  |  |  | 20.7 ± 4.66 (≈ 72.8 µM) |  | 
